In PMC5164911, “Comparative Analysis of the Interaction between Different Flavonoids and PDIA3” (Oxidative Medicine and Cellular Longevity, 2016):
pKd: −log10 of the molar value.

What was measured:
PDIA3 [1] = target: T1, PDIA3 (Homo sapiens, UniProt P30101); assay: Fluorescence quenching titration of PDIA3 intrinsic fluorescence; type: binding; conditions: for Stern-Volmer constant (K SV): 0.5∗10^−6 M PDIA3 in reduced conditions, pH 7.4, 25°C, flavonoid 0 to 10∗10^−6 M, mean and standard deviation; for bimolecular quenching rate constant (K q): K SV = K q τ0 with τ0 of the order of 10^−8 s; for bimolecular quenching rate constant (K q) / pKd / binding constant (K b): reduced PDIA3, pH 7.4, 25°C; for pKd: K d = 1/K b, read-out: dissociation constant (K d); for binding constant (K b): equation of Bi et al., reiterative calculation of Sun et al.
T1 construct: made in house; host or cells: E. coli BL21 (vector pET21)
T1 sequence (P30101 25-505): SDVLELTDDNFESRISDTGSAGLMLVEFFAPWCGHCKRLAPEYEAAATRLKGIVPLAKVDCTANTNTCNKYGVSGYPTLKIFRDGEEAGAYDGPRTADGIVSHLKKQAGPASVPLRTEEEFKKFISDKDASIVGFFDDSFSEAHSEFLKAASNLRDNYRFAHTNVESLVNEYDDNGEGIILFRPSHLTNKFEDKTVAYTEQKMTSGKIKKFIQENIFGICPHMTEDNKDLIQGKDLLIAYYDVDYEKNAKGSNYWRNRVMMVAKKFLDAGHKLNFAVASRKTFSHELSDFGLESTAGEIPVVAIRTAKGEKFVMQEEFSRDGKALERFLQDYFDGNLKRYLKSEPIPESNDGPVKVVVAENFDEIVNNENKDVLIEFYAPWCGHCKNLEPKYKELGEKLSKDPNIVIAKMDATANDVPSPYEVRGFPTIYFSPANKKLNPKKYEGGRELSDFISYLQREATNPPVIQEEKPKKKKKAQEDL
Procedure: Quantitative analysis of the interaction between individual flavonoids and PDIA3 was performed by fluorimetric titration. […] Briefly, solution of PDIA3 (0.5 μM) or a and a′ domains (1 μM) in phosphate buffered saline (PBS) containing DTT 0.1 mM and EDTA 0.2 mM were titrated in quartz cuvette by stepwise additions, at 5 min time intervals, of individual flavonoid solution (1 mM in PBS/ethanol 50 : 50 v/v freshly prepared from a 20 mM stock solution in DMSO). […] To minimize the inner-filter effect we limited the highest concentration reached in the titration test up to 10 μM. All experiments were carried out at 25°C. Each spectrum was the mean of three repeated scans. Fluorescence spectra of appropriate blanks (flavonoids without proteins) were recorded under the same experimental conditions and subtracted from the corresponding flavonoid-protein system to correct the fluorescence background.
Quenching analysis was performed on PDIA3 (0.5 μM), in the reduced form, by adding stepwise increasing concentration of each molecule and recording the protein fluorescence spectra. For some flavonoids the analysis was extended to isolate a′ domain (1 μM), always in the reduced form. […] For each ligand molecule the Stern-Volmer quenching constant was obtained by linear regression of plots of F 0/F versus [L].
The Stern-Volmer quenching constant may be expressed as K SV = K q τ 0, where K q is the quencher rate coefficient and τ 0 is the average lifetime of the emissive excited state of the protein in the absence of the quencher.
The number of binding sites (n) and the binding constant (K b) were obtained by plotting log((F 0 − F)/F) versus log(1/([L t] − n(F 0 − F)[P t]/F 0)) using the reiterative calculation process described by Sun et al., assuming a similar affinity for each binding site.

PDIA3 [2] = target: T1, PDIA3; assay: Differential scanning fluorimetry (thermal stability, SYPRO Orange); type: binding; conditions: for Effect on PDIA3 stability (T m): flavonoid up to 50 μM, mainly at the highest concentration; for Increase in melting temperature (T m) of PDIA3: 50 μM flavonoid, reduced PDIA3 1 μM
Procedure: Protein stability was tested by the fluorescence-based thermal stability assay or differential scanning fluorimetry (DSF) developed by Pantoliano and coworkers. DSF records the fluorescence emission signal from the binding of a dye (SYPRO orange) to the exposed hydrophobic patches upon protein unfolding. Fluorescence measurements were performed using a CFX96 Connect RT-PCR instrument (BioRad). 18 μl aliquots of protein solution (1 μM), freshly diluted in Tris Buffered saline (50 mM TrisHCl, pH 8.0, 150 mM NaCl) containing 0.1 mM DTT, 0.2 mM EDTA, and 1 : 1000 dilution of SYPRO Orange (50 mM stock solution in DMSO), were distributed in a 96-well plate. Sample wells were addition of increasing concentration (up to 50 μM) of individual flavonoid by adding 2 μl of 10-fold concentrated stock solutions freshly prepared. As control, the protein solution was added with 2 μl of the dilution buffer. A melting point analysis was recorded increasing the temperature from 20 to 95°C with an increment of 0.5°C and reading, at each temperature, the fluorescence in fluorescence resonance energy transfer mode (FRET). Each measure was the average of three sample wells reading and each DSF experiment was repeated at least three times. To calculate T m values, DSF data from the melting curve were exported and fitted to Boltzman equation using GraphPad software. Effect of flavonoids was evaluated comparing the T m values in presence and absence of each molecule.

PDIA3 [3] = target: T1, PDIA3; assay: Disulfide reductase activity with DiE-GSSG fluorogenic probe; type: biochemical; conditions: DiE-GSSG substrate; for Inhibition of disulfide reductase (redox) activity: 20 μM flavonoid (Figure 7)
Procedure: Disulfide reductase activity of ERp57 was monitored by sensitive fluorescent assay using dieosin glutathione disulfide (DiE-GSSG) as fluorogenic probe. DiE-GSSG was synthesized by the reaction of eosin isothiocyanate with oxidized glutathione (GSSG) according to the method of Raturi and Mutus with some modifications. DiE-GSSG concentration was determined spectrophotometrically (ℇ 525 = 88,000 M^-1 cm^−1). Disulfide reductase activity was assayed in a reaction buffer containing 2 mM EDTA, 150 nM DiE-GSSG, and 5 μM DTT in PBS. A 20 μl aliquot of a stock solution of PDIA3 (1 μM) was added to the reaction mixture and DiE-GSSG reduction was monitored at 545 nm with excitation at 520 nm, at 25°C with continuous stirring. Reductase activity was calculated as the initial velocity in fluorescence increase. To test the effect of flavonoids on PDIA3 activity, the protein stock solution was previously incubated for 15 minutes at room temperature with different concentrations of each flavonoid and then a 20 μl aliquot subjected to assay in a reaction buffer containing the same concentration of the flavonoid.
Fluorescence quenching constant (K SV) values were given as means ± standard deviation and values of disulfide reductase activity were expressed in % of control sample ± relative standard deviation. All measurements were performed at least three times. Dunnett's test was used to compare the obtained reductase activity data with the activity of the untreated protein and a p value of <0.01 was considered as statistically significant.

Stern-Volmer constant (K SV) (PDIA3 [1]) [M⁻¹] | bimolecular quenching rate constant (K q) (PDIA3 [1]) [M⁻¹ s⁻¹] | pKd (PDIA3 [1]) | binding constant (K b) (PDIA3 [1]) [M⁻¹] | Effect on PDIA3 stability (T m) (PDIA3 [2]) | Inhibition of disulfide reductase (redox) activity (PDIA3 [3]) | Increase in melting temperature (T m) of PDIA3 (PDIA3 [2]) | Effect on disulfide reductase activity (in words) (PDIA3 [3]) | Structure (SMILES)
41110 ± 794 | 4.11e+12 | 4.66 | 45700 | – | – | – | – | COc1c(-c2ccc(O)c(O)c2)oc2cc(O)cc(O)c2c1=O [3-O-Methyl-quercetin, 3-O-methyl quercetin]
43961 ± 673 | 4.4e+12 | 4.68 | 47300 | – | – | – | – | O=c1cc(-c2ccc(O)cc2)oc2cc(O[C@@H]3O[C@H](CO)[C@@H](O)[C@H](O)[C@H]3O)cc(O)c12 [Apigenin-7-glucoside, apigenin-7-glucoside]
29761 ± 635 | 2.98e+12 | 4.47 | 29300 | similar, but less pronounced, effect | approximately 20% | – | – | Oc1cc(O)c2cc(O)c(-c3ccc(O)c(O)c3)[o+]c2c1 [Cyanidin, cyanidin]
33164 ± 542 | 3.32e+12 | 4.57 | 36700 | – | – | increased more than three degrees | – | O=c1c(O)c(-c2ccc(O)c(O)c2)oc2cc(O)ccc12 [Fisetin, fisetin]
22953 ± 435 | 2.3e+12 | 4.39 | 24400 | similar, but less pronounced, effect | – | – | – | O=c1c(-c2ccc(O)cc2)coc2cc(O)cc(O)c12 [Genistein, genistein]
28423 ± 982 | 2.84e+12 | 4.41 | 26000 | – | – | increased more than three degrees | – | O=c1c(O)c(-c2ccc(O)cc2)oc2cc(O)cc(O)c12 [Kaempferol, kaempferol]
31601 ± 484 | 3.16e+12 | 4.54 | 34600 | – | – | – | – | O=c1cc(-c2ccc(O)c(O)c2)oc2cc(O[C@@H]3O[C@H](CO)[C@@H](O)[C@H](O)[C@H]3O)cc(O)c12 [Luteolin-7-glucoside, luteolin-7-glucoside]
24063 ± 265 | 2.41e+12 | 4.41 | 25600 | – | approximately 20% | increased more than three degrees | some inhibitory effect | O=c1c(O)c(-c2ccc(O)cc2O)oc2cc(O)cc(O)c12 [Morin, morin]
16900 ± 352 | 1.69e+12 | 4.24 | 17300 | – | – | – | – | O=C1C[C@@H](c2ccc(O)cc2)Oc2cc(O)cc(O)c21 [Naringenin, naringenin]
28462 ± 295 | 2.85e+12 | 4.48 | 30100 | similar, but less pronounced, effect | – | – | – | COc1cc(O)c2c(=O)c(O)c(-c3ccc(O)c(O)c3)oc2c1 [Rhamnetin, rhamnetin]
22209 ± 484 | 2.22e+12 | 4.26 | – | – | – | – | – | COc1ccc(-c2cc(=O)c3cc(OC)ccc3o2)c(OC)c1 [Trimethoxyflavone, 6,2′,4′-trimethoxyflavone]

Structure (SMILES) | Stern-Volmer constant (K SV) (PDIA3 [1]) [M⁻¹] | bimolecular quenching rate constant (K q) (PDIA3 [1]) [M⁻¹ s⁻¹] | pKd (PDIA3 [1]) | binding constant (K b) (PDIA3 [1]) [M⁻¹] | Effect on PDIA3 stability (T m) (PDIA3 [2]) | Inhibition of disulfide reductase (redox) activity (PDIA3 [3]) | Increase in melting temperature (T m) of PDIA3 (PDIA3 [2]) | Effect on disulfide reductase activity (in words) (PDIA3 [3])
O=c1c(O[C@@H]2O[C@H](CO)[C@@H](O)[C@H](O)[C@H]2O)c(-c2ccc(O)c(O)c2)oc2cc(O)cc(O)c12 [Isoquercetin, isoquercetin] | 25738 ± 367 | 2.57e+12 | 4.46 | 29100 | – | – | – | –
COc1cc(-c2oc3cc(O)cc(O)c3c(=O)c2O)ccc1O [Isorhamnetin, isorhamnetin] | 36109 ± 1271 | 3.61e+12 | 4.51 | 32500 | similar, but less pronounced, effect | – | – | –
C[C@@H]1O[C@@H](Oc2c(-c3ccc(O)c(O)c3)oc3cc(O)cc(O)c3c2=O)[C@H](O)[C@H](O)[C@H]1O [Quercitrin, quercitrin] | 29211 ± 483 | 2.92e+12 | 4.51 | 32300 | – | – | – | –
C[C@@H]1O[C@@H](OC[C@H]2O[C@@H](Oc3c(-c4ccc(O)c(O)c4)oc4cc(O)cc(O)c4c3=O)[C@H](O)[C@@H](O)[C@@H]2O)[C@H](O)[C@H](O)[C@H]1O [Rutin, rutin] | 45197 ± 465 | 4.52e+12 | 4.66 | 45500 | – | – | – | –
